Converted amounts (≈) assume the structure as drawn.
Experiments:
Format in all cases: functional
[1] = system: Vibrio ichthyoenteri; assay: Antibacterial activity against Vibrio ichthyoenteri after 24 hrs by broth microdilution method
[2] = system: Staphylococcus aureus; assay: Antibacterial activity against Staphylococcus aureus SG511 after 24 hrs by broth microdilution method; details: SG511, 24 h
[3] = system: Streptococcus iniae; assay: Antibacterial activity against Streptococcus iniae after 24 hrs by broth microdilution method

| Compound | MIC [1] [µg/mL] | MIC [2] [µg/mL] | MIC [3] [µg/mL] |
| --- | --- | --- | --- |
| CCCCCCCCC(=O)c1cccc2c1C=C(CCCCCCC)[C@@]1(OCc3c(O)cccc31)O2 | > 40 | > 40 | > 40 |
| CCCCCCCCC(=O)c1cccc2c1C=C(CCCCCCC)[C@]1(OCc3c(O)cccc31)O2 | > 40 | > 40 | > 40 |
| CN(C)[C@@H]1C(O)=C(C(N)=O)C(=O)[C@@]2(O)C(=O)C3=C(O)c4c(O)cccc4[C@@](C)(O)[C@H]3[C@H](O)[C@@H]12 | 0.16 (≈ 0.347 µM) |  | 2.5 (≈ 5.43 µM) |
| CCCCCCCCC(=O)c1cccc2c1C=C(CCCCCCC)C1(OCc3c(O)cccc31)O2 (racemic) | 40 (≈ 81.5 µM) | > 40 | > 40 |
| CN(C)[C@@H]1C(O)=C(C(N)=O)C(=O)[C@@]2(O)C(O)=C3C(=O)c4c(O)cccc4[C@@](C)(O)[C@H]3C[C@@H]12 [TETRACYCLINE] |  | 0.16 (≈ 0.36 µM) |  |

From ChEMBL document CHEMBL3739288, “Dimeric Octaketide Spiroketals from the Jellyfish-Derived Fungus Paecilomyces variotii J08NF-1” (2015)
